Results from ChEMBL document CHEMBL5365473, “Novel Sulfonylurea-Based NLRP3 Inflammasome Inhibitor for Efficient Treatment of Nonalcoholic Steatohepatitis, Endotoxic Shock, and Colitis” (J Med Chem, 2023).
Active and inactive are the calls of the source. The calls are words filed in the database; no cut-off is given here.

Key:
[1] = target: NACHT, LRR and PYD domains-containing protein 3 (Mus musculus, UniProt Q8R4B8); experiment: Inhibition of NLRP3 inflammasome in mouse […] cells assessed as inhibition of LPS/ATP-induced IL-1 beta secretion primed with LPS for 4.5 hs followed by incubation with compound for 30 mins and later stimulation with ATP for 30 mins by ELISA; assay type: cell-based, J774.A1
Mus musculus [2] = experiment: Antiinflammatory activity against MCD diet-induced NASH C57BL/6 mouse model assessed as reduction in liver fibrosis at 40 mg/kg, po administered via gavage for 5 weeks by Masson's trichrome staining based analysis; assay type: functional, organism-based
Mus musculus [3] = experiment: Antiinflammatory activity against DSS-induced ulcerative colitis C57BL/6 mouse assessed as reduction in mucosal barrier disruption in colon at 10 mg/kg, ip administered for 9 days and measured on day 10 by H and E staining based analysis; assay type: functional, organism-based; details: time 10.0 day
Mus musculus [4] = experiment: Antiinflammatory activity against DSS-induced ulcerative colitis C57BL/6 mouse assessed as reduction in inflammatory cells infiltration in lamina propria in colon at 10 mg/kg, ip administered for 9 days and measured on day 10 by H and E staining based analysis; assay type: functional, organism-based; details: time 10.0 day
Mus musculus [5] = experiment: Antiinflammatory activity against DSS-induced ulcerative colitis C57BL/6 mouse assessed as reduction in crypt necrosis in colon at 10 mg/kg, ip administered for 9 days and measured on day 10 by H and E staining based analysis; assay type: functional, organism-based; details: time 10.0 day
Mus musculus [6] = experiment: Antiinflammatory activity against LPS-induced lethal septic shock C57BL/6 mouse model assessed as increase in animal's survival rate at 40 mg/kg, ip administered for 1 hr prior to LPS challenge and measured for 72 hrs; assay type: functional; details: time 73 hrs
Mus musculus [7] = experiment: Antiinflammatory activity against MCD diet-induced NASH C57BL/6 mouse model assessed as improvement in liver morphology at 40 mg/kg, po administered via gavage for 5 weeks by Masson's trichrome staining based analysis; assay type: functional, organism-based
Mus musculus [8] = experiment: Antiinflammatory activity against LPS-induced lethal septic shock C57BL/6 mouse model assessed as increase in animal's survival rate at 20 mg/kg, ip administered for 1 hr prior to LPS challenge and measured for 72 hrs; assay type: functional; details: time 73 hrs
[9] = Effect on immune cell numbers in MCS diet-fed C57BL/6 mouse assessed as effect on F4/80 expression at 40 mg/kg, po administered via gavage for 5 weeks by immunofluorescence staining based analysis; assay type: toxicity, organism-based; details: in vivo, 840 h
Mus musculus [10] = experiment: Antiinflammatory activity against MCD diet-induced NASH C57BL/6 mouse model assessed as reduction in liver steatosis at 40 mg/kg, po administered via gavage for 5 weeks by H and E staining based analysis; assay type: functional, organism-based
Mus musculus [11] = experiment: Antiinflammatory activity against MCD diet-induced NASH C57BL/6 mouse model assessed as reduction in balloon dilatation in liver at 40 mg/kg, po administered via gavage for 5 weeks by Sirius red staining based analysis; assay type: functional, organism-based
[12] = Effect on immune cell numbers in MCS diet-fed C57BL/6 mouse assessed as effect on CD45 expression at 40 mg/kg, po administered via gavage for 5 weeks by immunofluorescence staining based analysis; assay type: toxicity, organism-based; details: in vivo, 840 h
Mus musculus [13] = experiment: Antiinflammatory activity against MCD diet-induced NASH C57BL/6 mouse model assessed as improvement in liver morphology at 40 mg/kg, po administered via gavage for 5 weeks by H and E staining based analysis; assay type: functional, organism-based
Hepatocyte = experiment: Cytotoxicity against mouse primary hepatic cells assessed as reduction in cell viability at 200 uM measured after 24 hrs by CCK8 assay; assay type: toxicity, cell-based; details: hepatocytes
[14] = Half life in C57BL/6 mouse at 20 mg/kg, po by LC-MS/MS analysis; assay type: ADME, organism-based; details: in vivo
Mus musculus [15] = experiment: Antiinflammatory activity against MCD diet-induced NASH C57BL/6 mouse model assessed as reduction in liver steatosis at 40 mg/kg, po administered via gavage for 5 weeks by Sirius red staining based analysis; assay type: functional, organism-based
Mus musculus [16] = experiment: Antiinflammatory activity against MCD diet-induced NASH C57BL/6 mouse model assessed as reduction in liver fibrosis at 40 mg/kg, po administered via gavage for 5 weeks by Sirius red staining based analysis; assay type: functional, organism-based
Mus musculus [17] = experiment: Antiinflammatory activity against MCD diet-induced NASH C57BL/6 mouse model assessed as reduction in balloon dilatation in liver at 40 mg/kg, po administered via gavage for 5 weeks by Masson's trichrome staining based analysis; assay type: functional, organism-based
L02 = experiment: Cytotoxicity against human HL7702 cells assessed as reduction in cell viability at 200 uM measured after 24 hrs by CCK8 assay; assay type: toxicity, cell-based; details: l02, 24 h
Mus musculus [18] = experiment: Antiinflammatory activity against DSS-induced ulcerative colitis C57BL/6 mouse assessed as reduction in colon length shortening at 10 mg/kg, ip administered for 9 days and measured on day 10; assay type: functional, organism-based; details: time 10.0 day
[19] = target: NACHT, LRR and PYD domains-containing protein 3 (Mus musculus) (UniProt Q8R4B8); details: J774.A1, dose 30.0 nM, time 3.0 hrs
[20] = target: NACHT, LRR and PYD domains-containing protein 3 (Mus musculus) (UniProt Q8R4B8); details: J774.A1, dose 30.0 nM, time 3.0 hrs; remark: listed apart in the source
Mus musculus [21] = experiment: Antiinflammatory activity against MCD diet-induced NASH C57BL/6 mouse model assessed as reduction in immune cell infiltration by measuring reduction in CD45-positive hepatic cells at 40 mg/kg, po administered via gavage for 5 weeks by immunofluorescence staining based analysis; assay type: functional, organism-based
Mus musculus [22] = experiment: Antiinflammatory activity against MCD diet-induced NASH C57BL/6 mouse model assessed as reduction in balloon dilatation in liver at 40 mg/kg, po administered via gavage for 5 weeks by H and E staining based analysis; assay type: functional, organism-based
Mus musculus [23] = experiment: Antiinflammatory activity against MCD diet-induced NASH C57BL/6 mouse model assessed as reduction in liver fibrosis at 40 mg/kg, po administered via gavage for 5 weeks by H and E staining based analysis; assay type: functional, organism-based
Mus musculus [24] = experiment: Antiinflammatory activity against MCD diet-induced NASH C57BL/6 mouse model assessed as improvement in liver morphology at 40 mg/kg, po administered via gavage for 5 weeks by Sirius red staining based analysis; assay type: functional, organism-based
Mus musculus [25] = experiment: Antiinflammatory activity against LPS-induced lethal septic shock C57BL/6 mouse model assessed as reduction in serum IL-1 beta level at 20 to 40 mg/kg, ip administered for 1 hr prior to LPS challenge and measured after 2.5 hrs by ELISA; assay type: functional, organism-based; details: dose 20-40 mg/kg, time 3.5 hrs
Mus musculus [26] = experiment: Antiinflammatory activity against DSS-induced ulcerative colitis C57BL/6 mouse assessed as reduction in massive loss of goblet cells in colon at 10 mg/kg, ip administered for 9 days and measured on day 10 by H and E staining based analysis; assay type: functional, organism-based; details: time 10.0 day
Mus musculus [27] = experiment: Antiinflammatory activity against DSS-induced ulcerative colitis C57BL/6 mouse assessed as reduction in body weight loss at 10 mg/kg, ip administered for 9 days and measured daily; assay type: functional, organism-based; details: time 9.0 day
Mus musculus [28] = experiment: Antiinflammatory activity against MCD diet-induced NASH C57BL/6 mouse model assessed as reduction in immune cell infiltration by measuring reduction in F4/80-positive hepatic cells at 40 mg/kg, po administered via gavage for 5 weeks by immunofluorescence staining based analysis; assay type: functional, organism-based
Mus musculus [29] = experiment: Antiinflammatory activity against MCD diet-induced NASH C57BL/6 mouse model assessed as protection against MCD diet-induced increase in liver to body weight ratio at 40 mg/kg, po administered via gavage for 5 weeks; assay type: functional, organism-based
Mus musculus [30] = experiment: Antiinflammatory activity against MCD diet-induced NASH C57BL/6 mouse model assessed as reduction in TUNEL-positive hepatic cells at 40 mg/kg, po administered via gavage for 5 weeks by TUNEL assay; assay type: functional, organism-based
Mus musculus [31] = experiment: Antiinflammatory activity against LPS-induced lethal septic shock C57BL/6 mouse model assessed as effect on TNF-alpha level at 40 mg/kg, ip administered for 1 hr prior to LPS challenge and measured after 2.5 hrs by ELISA; assay type: functional, organism-based; details: time 3.5 hrs
Mus musculus [32] = experiment: Antiinflammatory activity against MCD diet-induced NASH C57BL/6 mouse model assessed as reduction in liver steatosis at 40 mg/kg, po administered via gavage for 5 weeks by Masson's trichrome staining based analysis; assay type: functional, organism-based
[33] = Oral bioavailability in C57BL/6 mouse at 20 mg/kg by LC-MS/MS analysis; assay type: ADME, organism-based; details: in vivo

Sequence of NACHT, LRR and PYD domains-containing protein 3 (Q8R4B8 whole entry, the tested form may be a part): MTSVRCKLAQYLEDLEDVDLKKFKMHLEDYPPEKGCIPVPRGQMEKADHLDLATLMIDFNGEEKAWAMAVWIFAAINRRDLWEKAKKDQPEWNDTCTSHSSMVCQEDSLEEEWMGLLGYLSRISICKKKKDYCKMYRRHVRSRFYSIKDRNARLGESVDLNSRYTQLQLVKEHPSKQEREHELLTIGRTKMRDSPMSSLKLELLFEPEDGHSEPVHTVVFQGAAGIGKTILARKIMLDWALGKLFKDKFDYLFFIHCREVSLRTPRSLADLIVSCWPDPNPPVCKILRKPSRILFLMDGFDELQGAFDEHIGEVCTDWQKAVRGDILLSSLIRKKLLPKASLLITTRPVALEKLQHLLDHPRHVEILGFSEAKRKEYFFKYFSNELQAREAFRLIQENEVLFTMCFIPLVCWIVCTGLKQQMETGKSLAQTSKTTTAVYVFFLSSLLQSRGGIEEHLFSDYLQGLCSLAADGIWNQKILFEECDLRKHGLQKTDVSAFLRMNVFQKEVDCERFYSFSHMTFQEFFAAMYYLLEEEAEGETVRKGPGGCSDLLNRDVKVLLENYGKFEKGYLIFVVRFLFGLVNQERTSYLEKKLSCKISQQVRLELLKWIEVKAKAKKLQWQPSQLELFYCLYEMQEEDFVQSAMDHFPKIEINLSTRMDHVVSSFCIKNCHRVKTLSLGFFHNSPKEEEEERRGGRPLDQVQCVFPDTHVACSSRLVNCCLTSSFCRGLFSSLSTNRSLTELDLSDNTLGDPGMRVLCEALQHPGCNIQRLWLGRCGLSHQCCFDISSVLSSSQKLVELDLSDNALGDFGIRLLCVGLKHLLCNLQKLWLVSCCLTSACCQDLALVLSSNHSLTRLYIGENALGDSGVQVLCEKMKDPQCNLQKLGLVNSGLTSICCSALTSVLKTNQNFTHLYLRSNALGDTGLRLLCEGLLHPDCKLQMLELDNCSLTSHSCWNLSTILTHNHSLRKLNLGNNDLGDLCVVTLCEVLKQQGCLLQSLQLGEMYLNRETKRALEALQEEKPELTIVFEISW
Sequence of NACHT, LRR and PYD domains-containing protein 3 (Mus musculus) (Q8R4B8 whole entry, the tested form may be a part): as above

COC1CN(Cc2cccc(S(=O)(=O)NC(=O)Nc3c4c(cc5c3CCC5)CCC4)c2)C1
IC50 [1]: 5 µM

CC(C)(O)c1coc(S(=O)(=O)NC(=O)Nc2c3c(c(-c4cccc(C#N)c4)c4c2CCC4)CCC3)c1
IC50 [1]: > 5 µM

Cc1cc(C)cc(NC(=O)NS(=O)(=O)c2ccc(CN(C)C)cc2)c1
IC50 [1]: > 10 µM

O=C(Nc1c2c(cc3c1CCC3)CCC2)NS(=O)(=O)c1ccc(CN2CCOCC2)cc1
IC50 [1]: 3.69 µM

CN(C)Cc1ccc(S(=O)(=O)NC(=O)Nc2c(-c3ccccc3)cccc2-c2ccccc2)cc1
IC50 [1]: 1.48 µM

CC(C)c1cccc(C(C)C)c1CC(=O)NS(=O)(=O)c1ccc(CN(C)C)cc1
IC50 [1]: 1.86 µM

O=C(Nc1c2c(cc3c1CCC3)CCC2)NS(=O)(=O)c1ccc(CN2CCCCC2)cc1
IC50 [1]: 1.25 µM

CNC(=O)c1cccc(S(=O)(=O)NC(=O)Nc2c3c(cc4c2CCC4)CCC3)c1
IC50 [1]: 3.72 µM

CCN(C)Cc1ccc(S(=O)(=O)NC(=O)Nc2c3c(cc4c2CCC4)CCC3)cc1
IC50 [1]: 0.063 µM

CC(C)(O)c1coc(S(=O)(=O)NC(=O)Nc2c3c(cc4c2CCC4)CCC3)c1
Activity (Mus musculus [2]): Active | Activity (Mus musculus [3]): Active | Activity (Mus musculus [4]): Active | Activity (Mus musculus [5]): Active | survival at 40 mg/kg (Mus musculus [6]): 60% | Activity (Mus musculus [7]): Active | survival at 20 mg/kg (Mus musculus [8]): 20% | Activity [9]: Non-Toxic | Activity (Mus musculus [10]): Active | Activity (Mus musculus [11]): Active | Activity [12]: Non-Toxic | Activity (Mus musculus [13]): Active | IC50 [1]: 0.014 µM | Activity (Hepatocyte): Toxic | half-life [14]: 1.32 h | Activity (Mus musculus [15]): Active | Activity (Mus musculus [16]): Active | Activity (Mus musculus [17]): Active | Activity (L02): Toxic | Activity (Mus musculus [18]): Active | inhibition [19]: Active | inhibition [20]: Active | Activity (Mus musculus [21]): inactive | Activity (Mus musculus [22]): Active | Activity (Mus musculus [23]): Active | Activity (Mus musculus [24]): Active | Activity (Mus musculus [25]): Active | Activity (Mus musculus [26]): Active | Activity (Mus musculus [27]): Active | Activity (Mus musculus [28]): inactive | Activity (Mus musculus [29]): Active | Activity (Mus musculus [30]): Active | Activity (Mus musculus [31]): inactive | Activity (Mus musculus [32]): Active | bioavailability [33]: 85.2%

CCCCCN(C)Cc1ccc(S(=O)(=O)NC(=O)Nc2c3c(cc4c2CCC4)CCC3)cc1
IC50 [1]: 1.73 µM

CC(C)(C)OC(=O)N1CC=C(c2c3c(c(NC(=O)NS(=O)(=O)c4cc(C(C)(C)O)co4)c4c2CCC4)CCC3)CC1
IC50 [1]: > 5 µM

COC(=O)c1ccc(-c2c3c(c(NC(=O)NS(=O)(=O)c4cc(C(C)(C)O)co4)c4c2CCC4)CCC3)cc1
IC50 [1]: 1.12 µM

Cc1cccc(C)c1NC(=O)NS(=O)(=O)c1ccc(CN(C)C)cc1
IC50 [1]: > 10 µM

CCCN(C)Cc1ccc(S(=O)(=O)NC(=O)Nc2c3c(cc4c2CCC4)CCC3)cc1
IC50 [1]: > 10 µM

CCCCN(C)Cc1ccc(S(=O)(=O)NC(=O)Nc2c3c(cc4c2CCC4)CCC3)cc1
IC50 [1]: > 10 µM
